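Tested at 5 concentrations; 48 h exposure; 96-well plates; endpoints linearly interpolated, else capped at highest concentration. The concentration for full growth arrest is given as TGI.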

Test systems include UACC-257 melanoma; BT-549 breast; MCF7 breast; UACC-62 melanoma; A498 renal; NCI-H460 lung; 786-0 renal; OVCAR-5 ovarian; KM12 colon; MDA-MB-231 breast; SF-539 CNS.
Assay in all cases: NCI-60 cell line screen, 48 h

Take `COCCN(C(=O)c1ccccc1)C1CCC(=O)c2[nH]c3ccccc3c21` (stereo unspecified): the TGI in the assay on UACC-257 melanoma was more than 66.7 µM; with BT-549 breast, 8.22 µM; in the assay on MCF7 breast, 19.2 µM; in the assay with UACC-62 melanoma, 36.5 µM; in the assay with A498 renal it was 33.4 µM; in the assay with NCI-H460 lung it was 34.9 µM. Also, the TGI in the assay with 786-0 renal was 11.9 µM; with OVCAR-5 ovarian, 30.6 µM; with KM12 colon it was 21.9 µM; in the assay on MDA-MB-231 breast, 15.9 µM; with SF-539 CNS, 24.3 µM.
Take `CCn1c(SCc2nnc(Nc3ccccc3)s2)nc2ccccc2c1=O`: the TGI with UACC-257 melanoma is 51.9 µM; with BT-549 breast, 26.7 µM; with MCF7 breast, more than 93.6 µM; with UACC-62 melanoma, 11.9 µM; in the assay on A498 renal, 3.92 µM; in the assay on NCI-H460 lung it was 4.77 µM. The TGI is 3.97 µM in the assay on 786-0 renal; 31.1 µM in the assay with OVCAR-5 ovarian; more than 48.9 µM with KM12 colon; 10.2 µM with MDA-MB-231 breast; 19.3 µM in the assay with SF-539 CNS.
In the case of `CCCC(CC)c1cc(O)c(O)cc1C(CC)CCC` (stereo unspecified), the TGI in the assay on UACC-257 melanoma, in the assay with BT-549 breast, in the assay with MCF7 breast, in the assay with UACC-62 melanoma, with A498 renal and in the assay on NCI-H460 lung was more than 10 µM throughout. The TGI with 786-0 renal, with OVCAR-5 ovarian, with KM12 colon, in the assay on MDA-MB-231 breast and in the assay on SF-539 CNS was more than 10 µM each time.
For `CC(=O)NCC1OC2COC(c3ccccc3)OC2C2N=C(c3ccccc3)OC12` (stereo unspecified), the TGI in the assay with UACC-257 melanoma, with BT-549 breast, in the assay on MCF7 breast, in the assay with UACC-62 melanoma, with A498 renal and in the assay with NCI-H460 lung was more than 100 µM each time. Moreover, the TGI in the assay on 786-0 renal, in the assay with OVCAR-5 ovarian, in the assay with KM12 colon, in the assay on MDA-MB-231 breast and in the assay on SF-539 CNS was more than 100 µM throughout.
In the case of `C=C(C)[C@@H]1CC[C@]2(C(=O)OC3OC(COC4OC(CO)C(OC5OC(C)C(O)C(O)C5O)C(O)C4O)C(O)C(O)C3O)CC[C@]3(C)[C@H](CC[C@@H]4[C@@]5(C)CC[C@H](O)[C@@](C)(CO)[C@@H]5CC[C@]43C)[C@@H]12` (stereo partly specified), the TGI in the assay on UACC-257 melanoma was more than 10 µM; in the assay on BT-549 breast, more than 8.43 µM; with MCF7 breast, more than 10 µM; in the assay with UACC-62 melanoma, 4.76 µM; in the assay with A498 renal it was more than 10 µM; in the assay with NCI-H460 lung, 5.11 µM. Further, the TGI is more than 10 µM with 786-0 renal; more than 10 µM in the assay on OVCAR-5 ovarian; more than 10 µM with KM12 colon; more than 9.18 µM with MDA-MB-231 breast; more than 7.72 µM with SF-539 CNS.
For `CC(C)(C)C(=O)O[C@H]1C=C[C@@H](O)[C@@H]2[C@H]1[C@@H]1C=C[C@H]2C1`, the TGI in the assay with UACC-257 melanoma is 27.1 µM; in the assay on BT-549 breast, more than 100 µM; in the assay with MCF7 breast, 39.9 µM; in the assay on UACC-62 melanoma it was more than 100 µM; in the assay on A498 renal, 50.8 µM; with NCI-H460 lung it was more than 100 µM. In addition, the TGI in the assay with 786-0 renal is more than 100 µM; in the assay with OVCAR-5 ovarian, 6.42 µM; in the assay on KM12 colon, 12.4 µM; in the assay with MDA-MB-231 breast, more than 100 µM; in the assay on SF-539 CNS, 92.9 µM.

For the origin of these results see PubChem BioAssay (NCI).
